Calls of active or inactive are those of the source. No cut-off for these calls is given here.
Assays:
PANC-1 = test: Cytotoxicity against human PANC1 cells assessed as inhibition of cell growth at 10 ug/ml incubated for 48 hrs by MTT assay; type: functional, cell-based
MCF7 [1] = test: Cytotoxicity against human MCF7 cells assessed as inhibition of cell growth at 10 ug/ml incubated for 48 hrs by MTT assay; type: functional, cell-based
HepG2 [2] = test: Cytotoxicity against human HepG2 cells assessed as inhibition of cell growth at 10 ug/ml incubated for 48 hrs by MTT assay; type: functional, cell-based
HeLa [3] = test: Cytotoxicity against human HeLa cells assessed as inhibition of cell growth at 10 ug/ml incubated for 48 hrs by MTT assay; type: functional, cell-based
A-375 = test: Cytotoxicity against human A375 cells assessed as inhibition of cell growth at 10 ug/ml incubated for 48 hrs by MTT assay; type: functional, cell-based
A549 = test: Cytotoxicity against human A549 cells assessed as inhibition of cell growth at 10 ug/ml incubated for 48 hrs by MTT assay; type: functional, cell-based
SK-OV-3 = test: Cytotoxicity against human SKOV3 cells assessed as inhibition of cell growth at 10 ug/ml incubated for 48 hrs by MTT assay; type: functional, cell-based
K562 = test: Cytotoxicity against human K562 cells assessed as inhibition of cell growth at 10 ug/ml incubated for 48 hrs by MTT assay; type: functional, cell-based
MCF7 [4] = test: cells; type: functional, cell-based; conditions: Homo sapiens, MCF7, 48 h
Description: Cytotoxicity against human MCF7 cells assessed as inhibition of cell growth incubated for 48 hrs by MTT assay

MDA-MB-231 = test: cells; type: functional, cell-based; conditions: Homo sapiens, MDA-MB-231, 48 h
Description: Cytotoxicity against human MDA-MB-231 cells assessed as inhibition of cell growth incubated for 48 hrs by MTT assay

MDA-MB-468 = test: cells; type: functional, cell-based; conditions: Homo sapiens, MDA-MB-468, 48 h
Description: Cytotoxicity against human MDA-MB-468 cells assessed as inhibition of cell growth incubated for 48 hrs by MTT assay

HepG2 [5] = test: cells; type: functional, cell-based; conditions: Homo sapiens, HepG2, 48 h
Description: Cytotoxicity against human HepG2 cells assessed as inhibition of cell growth incubated for 48 hrs by MTT assay

cells [6] = type: functional, cell-based; conditions: Homo sapiens, HCCC9810, 48 h
Description: Cytotoxicity against human HCCC9810 cells assessed as inhibition of cell growth incubated for 48 hrs by MTT assay

cells [7] = type: functional, cell-based; conditions: Homo sapiens, Huh-7, 48 h
Description: Cytotoxicity against human HuH7 cells assessed as inhibition of cell growth incubated for 48 hrs by MTT assay

MCF7 [8] = test: Induction of apoptosis in human MCF7 cells at 50 uM incubated for 24 hrs by Hoechst 33342 staining; type: functional, cell-based
HeLa [9] = test: Induction of apoptosis in human HeLa cells incubated for 12 hrs by Annexin V-FITC/PI staining based flow cytometry (reference value: 3.37%); type: functional
HeLa [10] = test: Induction of apoptosis in human HeLa cells incubated for 24 hrs by Annexin V-FITC/PI staining based flow cytometry (reference value: 3.37%); type: functional
MCF7 [11] = test: Induction of apoptosis in human MCF7 cells assessed as increase in PARP cleavage incubated for 24 hrs by Western blotting method; type: functional, cell-based

| IC50 (MCF7 [4]) [µM] | IC50 (MDA-MB-231) [µM] | IC50 (MDA-MB-468) [µM] | IC50 (HepG2 [5]) [µM] | IC50 (cells [6]) [µM] | IC50 (cells [7]) [µM] | Structure (SMILES) | growth inhibition (GI) (PANC-1) | growth inhibition (GI) (MCF7 [1]) | growth inhibition (GI) (HepG2 [2]) | growth inhibition (GI) (HeLa [3]) | growth inhibition (GI) (A-375) | growth inhibition (GI) (A549) | growth inhibition (GI) (SK-OV-3) | growth inhibition (GI) (K562) | Activity (MCF7 [8]) | Activity (HeLa [9]) [%] | Activity (HeLa [10]) [%] | Activity (MCF7 [11]) |
| --- | --- | --- | --- | --- | --- | --- | --- | --- | --- | --- | --- | --- | --- | --- | --- | --- | --- | --- |
|  |  |  |  |  |  | CN1C[C@@H](c2ccco2)[C@@]2(N=C(c3ccccc3)OC2=O)[C@@]12C(=O)N(Cc1ccccc1)c1ccccc12 | Active | Active | Active | Active | Active | Active | Active | Active |  |  |  |  |
| 5.5 | 5.1 | 4.9 | 6.7 | > 10 | 7.1 | CNC(=O)c1cc(Oc2ccc(NC(=O)Nc3ccc(Cl)c(C(F)(F)F)c3)cc2)ccn1 [SORAFENIB] |  |  |  |  |  |  |  |  |  |  |  |  |
|  |  |  |  |  |  | CN1C[C@@H](c2ccc(Cl)c(Cl)c2)[C@@]2(N=C(c3ccccc3)OC2=O)[C@@]12C(=O)N(Cc1ccccc1)c1ccccc12 | Active | Active | Active | Active | Active | Active | Active | Active |  |  |  |  |
|  |  |  |  |  |  | O=C1OC(c2ccccc2)=N[C@@]12[C@H](c1ccc(Cl)c(Cl)c1)[C@H]1CCCN1[C@]21C(=O)N(Cc2ccccc2)c2ccccc21 | Active | Active | Active | Active | Active | Active | Active | Active |  |  |  |  |
| 8.1 | 4.2 | 3.4 | 8.7 | 7.2 | 7.9 | O=C1OC(c2ccccc2)=N[C@@]12[C@H](c1ccc(C(F)(F)F)cc1)[C@H]1CCCN1[C@]21C(=O)Nc2ccccc21 | Active | Active | Active | Active | Active | Active | Active | Active | Active | 16.17 | 44.64 | Active |
|  |  |  |  |  |  | O=C1OC(c2ccccc2)=N[C@@]12[C@H](c1ccccc1)[C@H]1CCCN1[C@]21C(=O)N(Cc2ccccc2)c2ccccc21 | Active | Active | Active | Active | Active | Active | Active | Active |  |  |  |  |
|  |  |  |  |  |  | O=C1OC(c2ccccc2)=N[C@@]12[C@H](c1ccccc1)[C@H]1CSCN1[C@]21C(=O)Nc2ccccc21 | Active | Active | Active | Active | Active | Active | Active | Active |  |  |  |  |
|  |  |  |  |  |  | CN1C(=O)[C@@]2(c3ccccc31)N(C)C[C@@H](c1cccc(Cl)c1)[C@@]21N=C(c2ccccc2)OC1=O | Active | Active | Active | Active | Active | Active | Active | Active |  |  |  |  |
|  |  |  |  |  |  | O=C1OC(c2ccccc2)=N[C@@]12[C@H](c1cccc(Cl)c1)[C@H]1CCCN1[C@]21C(=O)Nc2ccccc21 | Active | Active | Active | Active | Active | Active | Active | Active |  |  |  |  |
|  |  |  |  |  |  | O=C1OC(c2ccccc2)=N[C@@]12[C@H](c1ccccc1)CN[C@]21C(=O)Nc2ccccc21 | Active | Active | Active | Active | Active | Active | Active | Active |  |  |  |  |
|  |  |  |  |  |  | CN1C[C@@H](c2ccccc2)[C@@]2(N=C(c3ccccc3)OC2=O)[C@@]12C(=O)Nc1ccccc12 | Active | Active | Active | Active | Active | Active | Active | Active |  |  |  |  |
|  |  |  |  |  |  | O=C1OC(c2ccccc2)=N[C@@]12[C@H](c1ccccc1)[C@H]1CCCN1[C@]21C(=O)Nc2ccccc21 | Active | Active | Active | Active | Active | Active | Active | Active |  |  |  |  |
|  |  |  |  |  |  | O=C1OC(c2ccccc2)=N[C@@]12[C@H](c1ccc(Cl)c(Cl)c1)[C@H]1CCCN1[C@]21C(=O)Nc2ccccc21 | Active | Active | Active | Active | Active | Active | Active | Active |  |  |  |  |
|  |  |  |  |  |  | O=C1OC(c2ccccc2)=N[C@@]12[C@H](c1cccc(Cl)c1)[C@H]1CCCN1[C@]21C(=O)Nc2ccc(Cl)cc21 | Active | Active | Active | Active | Active | Active | Active | Active |  |  |  |  |
|  |  |  |  |  |  | CN1C[C@@H](c2ccccc2)[C@@]2(N=C(c3ccccc3)OC2=O)[C@@]12C(=O)N(Cc1ccccc1)c1ccccc12 | Active | Active | Active | Active | Active | Active | Active | Active |  |  |  |  |
|  |  |  |  |  |  | COc1cc([C@@H]2[C@H]3CCCN3[C@]3(C(=O)N(Cc4ccccc4)c4ccccc43)[C@]23N=C(c2ccccc2)OC3=O)cc(OC)c1OC | Active | Active | Active | Active | Active | Active | Active | Active |  |  |  |  |

— ChEMBL document CHEMBL3603792, “The discovery of oxazolones-grafted spirooxindoles via three-component diversity oriented synthesis and their preliminary biological evaluation” (Bioorg Med Chem Lett, 2015)
